Measured values as given in doi:10.1101/2024.08.19.608619, “Discovery of potent SARS-CoV-2 nsp3 macrodomain inhibitors uncovers lack of translation to cellular antiviral response” (bioRxiv, 2024).
pIC50: −log10 of the molar value.

Key:
[1] = tested on: Vero E6/TMPRSS2; assay: Vero E6/TMPRSS2 cytotoxicity with P-gp inhibitor; assay type: cell-based; conditions: for perc_max_measured: highest measured response of the dose series; for perc_min_measured: lowest measured response of the dose series
Description: Supplement media-1.zip/Cytotoxicity.csv, table | column: cc10; cc50; perc_min_measured; perc_max_measured

[2] = In vitro rat SD liver microsomal stability; assay type: in vitro ADME
Description: Supplement media-1.zip/Hepatic_Microsomal_Stability.csv, table | column: clint; t_half

[3] = Hepatic microsomal stability, MLM; assay type: in vitro ADME
[4] = molecular target: T1, norepinephrine transporter (h) (Homo sapiens, UniProt P23975); assay: In vitro CEREP profiling, norepinephrine transporter (h) (antagonist radioligand); assay type: binding; conditions: test compound concentration 10 uM
T1 construct: purchased Eurofins Cerep (SafetyScreen44), recognised from the panel format
T1 sequence (P23975 whole entry): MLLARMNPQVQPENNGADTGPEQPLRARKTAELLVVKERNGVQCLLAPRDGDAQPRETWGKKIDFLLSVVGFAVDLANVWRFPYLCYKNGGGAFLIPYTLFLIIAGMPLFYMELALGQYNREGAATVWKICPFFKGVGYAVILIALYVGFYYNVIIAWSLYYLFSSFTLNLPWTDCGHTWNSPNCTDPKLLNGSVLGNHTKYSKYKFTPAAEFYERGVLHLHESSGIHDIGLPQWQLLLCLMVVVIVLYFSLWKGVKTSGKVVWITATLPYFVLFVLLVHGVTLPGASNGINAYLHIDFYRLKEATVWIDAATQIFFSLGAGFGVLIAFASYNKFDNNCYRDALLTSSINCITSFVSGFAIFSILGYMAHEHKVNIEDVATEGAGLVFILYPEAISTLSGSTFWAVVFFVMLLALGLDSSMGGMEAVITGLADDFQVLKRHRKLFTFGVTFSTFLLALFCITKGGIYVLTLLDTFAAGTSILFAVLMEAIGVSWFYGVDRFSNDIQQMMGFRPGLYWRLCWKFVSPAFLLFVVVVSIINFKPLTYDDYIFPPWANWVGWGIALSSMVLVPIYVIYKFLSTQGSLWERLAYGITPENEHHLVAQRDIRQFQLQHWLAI
Description: (§1) Supplement media-1.zip/Safety_Panel_Profile.csv, table | column: perc_inhibition

[5] = molecular target: T2, COX2(h) (Homo sapiens, UniProt P35354); assay: In vitro CEREP profiling, COX2(h); assay type: biochemical; conditions: test compound concentration 10 uM, Enzyme and Cell-based assays
T2 construct: purchased Eurofins Cerep (SafetyScreen44), recognised from the panel format
T2 sequence (P35354 18-604): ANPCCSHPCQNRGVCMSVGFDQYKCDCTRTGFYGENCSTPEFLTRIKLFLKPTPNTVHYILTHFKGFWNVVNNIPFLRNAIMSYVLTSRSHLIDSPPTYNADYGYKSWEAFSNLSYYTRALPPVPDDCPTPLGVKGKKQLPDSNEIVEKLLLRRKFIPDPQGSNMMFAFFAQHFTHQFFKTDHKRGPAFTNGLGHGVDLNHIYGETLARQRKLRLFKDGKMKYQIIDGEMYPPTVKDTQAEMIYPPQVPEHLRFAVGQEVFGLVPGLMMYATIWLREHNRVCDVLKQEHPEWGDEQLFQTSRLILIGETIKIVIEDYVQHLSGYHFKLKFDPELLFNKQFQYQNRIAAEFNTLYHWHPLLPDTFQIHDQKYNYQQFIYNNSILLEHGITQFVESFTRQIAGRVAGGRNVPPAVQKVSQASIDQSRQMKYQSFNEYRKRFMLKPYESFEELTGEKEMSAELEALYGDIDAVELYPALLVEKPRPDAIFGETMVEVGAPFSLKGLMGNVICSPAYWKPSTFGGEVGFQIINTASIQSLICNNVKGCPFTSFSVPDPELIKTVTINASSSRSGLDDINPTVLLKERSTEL
Description: as §1

[6] = molecular target: T3, M3 (h) (Homo sapiens, UniProt P20309); assay: In vitro CEREP profiling, M3 (h) (antagonist radioligand); assay type: binding; conditions: test compound concentration 10 uM
T3 construct: purchased Eurofins Cerep (SafetyScreen44), recognised from the panel format
T3 sequence (P20309 whole entry): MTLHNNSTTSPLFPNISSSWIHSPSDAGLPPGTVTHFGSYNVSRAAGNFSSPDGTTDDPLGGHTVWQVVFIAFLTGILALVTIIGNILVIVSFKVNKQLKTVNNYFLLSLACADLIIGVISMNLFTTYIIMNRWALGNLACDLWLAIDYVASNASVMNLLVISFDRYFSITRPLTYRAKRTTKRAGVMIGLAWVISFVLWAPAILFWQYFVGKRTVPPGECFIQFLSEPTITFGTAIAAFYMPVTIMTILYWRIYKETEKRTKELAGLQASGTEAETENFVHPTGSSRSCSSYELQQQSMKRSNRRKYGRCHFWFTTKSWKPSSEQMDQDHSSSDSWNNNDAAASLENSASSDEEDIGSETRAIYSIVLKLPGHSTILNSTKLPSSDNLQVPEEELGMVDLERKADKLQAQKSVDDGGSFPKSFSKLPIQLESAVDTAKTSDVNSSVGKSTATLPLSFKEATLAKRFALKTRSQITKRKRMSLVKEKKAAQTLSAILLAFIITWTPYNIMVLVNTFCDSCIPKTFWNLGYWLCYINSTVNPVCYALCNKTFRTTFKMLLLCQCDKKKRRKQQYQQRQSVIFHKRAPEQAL
Description: as §1

[7] = molecular target: T4, PDE3A (h) (Homo sapiens, UniProt Q14432); assay: In vitro CEREP profiling, PDE3A (h); assay type: biochemical; conditions: test compound concentration 10 uM, Enzyme and Cell-based assays
T4 construct: purchased Eurofins Cerep (SafetyScreen44), recognised from the panel format
T4 sequence (Q14432 whole entry): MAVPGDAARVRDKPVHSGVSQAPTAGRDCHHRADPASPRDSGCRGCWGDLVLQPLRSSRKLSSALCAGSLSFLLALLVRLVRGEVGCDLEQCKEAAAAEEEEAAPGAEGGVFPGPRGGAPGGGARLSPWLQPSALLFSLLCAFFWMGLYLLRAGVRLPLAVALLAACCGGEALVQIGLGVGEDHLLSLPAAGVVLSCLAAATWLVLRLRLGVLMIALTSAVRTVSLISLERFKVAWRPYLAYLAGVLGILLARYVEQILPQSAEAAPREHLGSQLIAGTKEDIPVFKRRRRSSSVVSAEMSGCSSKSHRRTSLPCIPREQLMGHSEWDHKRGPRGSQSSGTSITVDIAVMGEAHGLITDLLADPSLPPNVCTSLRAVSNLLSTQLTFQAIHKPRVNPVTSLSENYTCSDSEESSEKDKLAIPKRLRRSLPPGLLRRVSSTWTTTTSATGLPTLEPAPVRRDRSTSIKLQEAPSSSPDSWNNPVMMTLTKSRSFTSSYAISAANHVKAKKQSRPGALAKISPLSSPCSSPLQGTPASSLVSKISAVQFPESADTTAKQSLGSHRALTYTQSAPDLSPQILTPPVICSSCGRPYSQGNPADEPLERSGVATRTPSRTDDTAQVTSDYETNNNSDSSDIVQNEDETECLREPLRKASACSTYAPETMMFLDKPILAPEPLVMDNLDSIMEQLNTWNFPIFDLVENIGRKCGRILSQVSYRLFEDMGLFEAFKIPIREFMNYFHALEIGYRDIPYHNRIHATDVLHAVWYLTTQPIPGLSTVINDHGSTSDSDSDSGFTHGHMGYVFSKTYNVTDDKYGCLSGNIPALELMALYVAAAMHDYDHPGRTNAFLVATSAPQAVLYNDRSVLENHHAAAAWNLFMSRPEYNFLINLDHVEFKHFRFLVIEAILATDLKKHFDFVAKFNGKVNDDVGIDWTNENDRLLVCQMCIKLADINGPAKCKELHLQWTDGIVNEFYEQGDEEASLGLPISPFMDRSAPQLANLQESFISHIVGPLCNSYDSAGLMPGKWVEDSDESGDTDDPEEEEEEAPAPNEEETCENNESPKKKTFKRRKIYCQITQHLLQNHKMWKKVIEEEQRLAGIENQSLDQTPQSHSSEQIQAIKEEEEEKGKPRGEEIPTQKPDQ
Description: as §1

[8] = tested on: CYP; assay: CYP inhibition; assay type: in vitro ADME; conditions: In vitro CYP inhibition pooled; for potency: potency class in words
Description: Supplement media-1.zip/CYP_Inhibition.csv, table | column: ic50; potency

[9] = molecular target: T5, mu (MOP) (h) (Homo sapiens, UniProt P35372); assay: In vitro CEREP profiling, mu (MOP) (h) (agonist radioligand); assay type: binding; conditions: test compound concentration 10 uM
T5 construct: purchased Eurofins Cerep (SafetyScreen44), recognised from the panel format
T5 sequence (P35372 whole entry): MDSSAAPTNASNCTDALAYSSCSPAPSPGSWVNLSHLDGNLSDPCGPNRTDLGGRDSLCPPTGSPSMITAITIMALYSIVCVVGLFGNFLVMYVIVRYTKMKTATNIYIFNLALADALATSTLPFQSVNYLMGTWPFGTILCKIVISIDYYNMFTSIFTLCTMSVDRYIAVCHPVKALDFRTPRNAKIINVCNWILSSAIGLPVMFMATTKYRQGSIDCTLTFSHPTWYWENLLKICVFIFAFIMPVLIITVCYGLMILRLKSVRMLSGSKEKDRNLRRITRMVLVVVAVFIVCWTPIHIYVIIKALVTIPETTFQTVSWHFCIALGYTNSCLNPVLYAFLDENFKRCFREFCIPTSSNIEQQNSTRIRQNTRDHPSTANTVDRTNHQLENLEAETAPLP
Description: as §1

[10] = In vitro human hepatocyte stability; assay type: in vitro ADME
Description: Supplement media-1.zip/Hepatocyte_Stability.csv, table | column: clint; t_half

[11] = tested on: Na+ channel (site 2); assay: In vitro CEREP profiling, Na+ channel (site 2) (antagonist radioligand); assay type: binding; conditions: test compound concentration 10 uM
Description: as §1

[12] = molecular target: T6, 5-HT3 (h) (Homo sapiens, UniProt P46098); assay: In vitro CEREP profiling, 5-HT3 (h) (antagonist radioligand); assay type: binding; conditions: test compound concentration 10 uM
T6 construct: purchased Eurofins Cerep (SafetyScreen44), recognised from the panel format
T6 sequence (P46098 24-478): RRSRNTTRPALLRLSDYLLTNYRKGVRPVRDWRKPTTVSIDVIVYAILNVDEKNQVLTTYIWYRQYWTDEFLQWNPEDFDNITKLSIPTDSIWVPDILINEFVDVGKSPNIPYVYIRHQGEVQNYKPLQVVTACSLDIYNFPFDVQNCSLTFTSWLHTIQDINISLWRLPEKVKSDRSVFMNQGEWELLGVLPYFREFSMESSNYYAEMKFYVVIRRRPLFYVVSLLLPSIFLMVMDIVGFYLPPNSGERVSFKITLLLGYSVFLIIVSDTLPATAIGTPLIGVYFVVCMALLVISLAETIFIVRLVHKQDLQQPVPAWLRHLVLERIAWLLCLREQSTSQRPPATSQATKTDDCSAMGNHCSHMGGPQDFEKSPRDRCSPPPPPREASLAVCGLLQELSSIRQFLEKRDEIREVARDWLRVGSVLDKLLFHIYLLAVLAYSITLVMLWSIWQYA
Description: as §1

[13] = molecular target: T7, alpha2A (h) (Homo sapiens, UniProt P08913); assay: In vitro CEREP profiling, alpha2A (h) (antagonist radioligand); assay type: binding; conditions: test compound 10 uM
T7 construct: purchased Eurofins Cerep (SafetyScreen44), recognised from the panel format
T7 sequence (P08913 1-465): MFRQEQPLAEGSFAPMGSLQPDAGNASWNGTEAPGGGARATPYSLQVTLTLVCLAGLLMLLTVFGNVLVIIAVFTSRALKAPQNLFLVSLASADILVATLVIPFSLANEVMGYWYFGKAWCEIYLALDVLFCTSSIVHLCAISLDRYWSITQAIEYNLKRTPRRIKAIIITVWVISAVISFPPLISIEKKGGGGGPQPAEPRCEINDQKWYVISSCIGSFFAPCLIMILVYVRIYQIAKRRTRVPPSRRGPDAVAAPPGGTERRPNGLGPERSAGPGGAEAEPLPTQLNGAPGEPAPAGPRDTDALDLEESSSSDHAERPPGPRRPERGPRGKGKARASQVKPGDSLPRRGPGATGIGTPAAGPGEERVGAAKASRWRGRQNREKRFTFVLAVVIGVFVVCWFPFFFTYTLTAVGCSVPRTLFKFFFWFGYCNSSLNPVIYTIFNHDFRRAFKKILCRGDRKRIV
Description: as §1

[14] = In vitro mouse liver microsomal stability
[15] = In vitro mouse liver microsomal stability, no cofactor
[16] = read-out: perc_inhibition, % inhibition of the binding of a ligand specific for each target
[17] = read-out: perc_inhibition (% inhibition of the binding of a ligand specific for each target)

SMILES | CC50 [1] [µM] | cc10 [1] [µM] | perc_max_measured [1] [%] | perc_min_measured [1] [%] | clint [2] [µL/min/mg] | t_half [2] [min] | clint [3, 14] [µL/min/mg] | perc_remaining [3, 14] [%] | t_half [3, 14] [min] | perc_inhibition (% inhibition of the binding of a ligand specific for each target) [4] [%] | perc_inhibition: % inhibition of control enzyme activity, COX2(h) [5] [%] | perc_inhibition (% inhibition of the binding of a ligand specific for each target) [6] [%] | perc_inhibition: % inhibition of control enzyme activity, PDE3A (h) [7] [%] | potency ([8]; isoform 1A2) | potency ([8]; isoform 2C9) | potency ([8]; isoform 2C19) | potency ([8]; isoform 2D6) | potency ([8]; isoform 3A4) | t_half [10] [min] | perc_inhibition (% inhibition of the binding of a ligand specific for each target) [11] [%] | also measured
CC(C)[C@@H](Nc1ncnc2[nH]c(-c3cnn(C)c3C#N)cc12)c1ccc2c(n1)OCCO2 [ASAP-0010716] | > 5 | > 5.0 | 116.627 | 99.207 | 156.0 | 4.46 | 371.0 | 1.0 | 4.5 | 4 | -7 | 1 | 37 | moderate | moderate | moderate | weak | moderate | 3.81 | 12 | perc_remaining_no_cofactor ([3]; In vitro mouse liver microsomal stability; no cofactor): 99.0%; pIC50 ([8]; isoform 1A2): 5.05; pIC50 ([8]; isoform 2C9): 5.36; pIC50 ([8]; isoform 2C19): 5.02; pIC50 ([8]; isoform 2D6): 4.64; pIC50 ([8]; isoform 3A4): 5.68; perc_inhibition (% inhibition of the binding of a ligand specific for each target) [9]: 77%; clint [10]: 182.0 uL/min/1E6 cells; perc_inhibition (% inhibition of the binding of a ligand specific for each target) [12]: 4%; perc_inhibition (% inhibition of the binding of a ligand specific for each target) [13]: 9%
CNCc1cc(-c2cc3c(N[C@@H](c4ccc5c(c4)S(=O)(=O)CCC5)C(C)C)ncnc3[nH]2)co1 [ASAP-0011176] | > 5 | > 5.0 | 117.999 | 102.841 | 21.4 | 32.4 | 54.0 | 35.0 | 30.9 | 39 | 24 | 5 | -5 | weak | moderate | weak | moderate | moderate-potent | 48.9 | 19 | perc_remaining_no_cofactor [3, 15]: 101.0%; pIC50 ([8]; isoform 1A2): 4.31; pIC50 ([8]; isoform 2C9): 5.28; pIC50 ([8]; isoform 2C19): 4.65; pIC50 ([8]; isoform 2D6): 5.04; pIC50 ([8]; isoform 3A4): 5.74; perc_inhibition (% inhibition of the binding of a ligand specific for each target) [9]: -5%; clint [10]: 14.2 uL/min/1E6 cells; perc_inhibition (% inhibition of the binding of a ligand specific for each target) [12]: 0%; perc_inhibition (% inhibition of the binding of a ligand specific for each target) [13]: 15%
CC(C)C(Nc1ncnc2[nH]c(C(=O)NC3CCN(C)C3)cc12)c1ccc2c(c1)S(=O)(=O)CCC2 (stereo not drawn) [ASAP-0011198] |  | > 5.0 | 120.684 | 90.027 |  | 88.3 |  | 80.0 | 151.0 |  |  |  |  | weak | weak | weak | weak | weak | > 231.0 | 16 | microsomal CLint ([2]; Sprague-Dawley (SD), liver microsomes): 7.85 µL/min/mg; perc_remaining_no_cofactor [3, 15]: 92.0%; microsomal CLint ([3]; liver microsomes; In vitro mouse liver microsomal stability): 11 µL/min/mg; inhibition at 10 µM [4, 16]: -1%; inhibition at 10 µM ([5]; read-out: perc_inhibition: % inhibition of control enzyme activity, COX2(h)): 4%; inhibition at 10 µM [6, 17]: -9%; inhibition at 10 µM ([7]; read-out: perc_inhibition: % inhibition of control enzyme activity, PDE3A (h)): 4%; inhibition at 10 µM [9, 17]: 7%; hepatocyte CLint ([10]; hepatocytes): < 3 µL/min/1e6 cells; inhibition at 10 µM [12, 16]: 2%; inhibition at 10 µM [13, 17]: 6%
C[C@H](C(=O)O)[C@@H](NC(=O)c1ncnc2[nH]ccc12)c1ccc(Br)cc1 [ASAP-0014722] | > 5 | > 5.0 | 112.113 | 82.421 | < 5.0 | > 139.0 | 4.0 | 111.226 | 379.672 | -6 | 7 | -9 | 52 | weak | moderate | weak | weak | weak | > 231.0 | 6 | perc_remaining_no_cofactor [3, 15]: 100.245%; pIC50 ([8]; isoform 1A2): < 4.30; pIC50 ([8]; isoform 2C9): 5.29; pIC50 ([8]; isoform 2C19): < 4.30; pIC50 ([8]; isoform 2D6): < 4.30; pIC50 ([8]; isoform 3A4): < 4.30; perc_inhibition (% inhibition of the binding of a ligand specific for each target) [9]: -10%; clint [10]: < 3.0 uL/min/1E6 cells; perc_inhibition (% inhibition of the binding of a ligand specific for each target) [12]: 2%; perc_inhibition (% inhibition of the binding of a ligand specific for each target) [13]: 3%
